What all share (assay type): cell-based
For one experiment, the system named is JVM2. Put plainly: Cell viability, Promega Celltiter Fluor (72 h). As to conditions: Homo sapiens, JVM-2; JVM2, Mantle Cell Lymphoma, assay duration 72 hours; read-out: LP-284 IC50. As for the experimental part:
(§1) The sensitivity and selectivity of Compound 1 (with positive optical chirality) was assessed using a panel of human blood cell lines. The cell lines used in this Example are shown below and plotted in FIG. 1. The cells were inoculated into 96 well plates at various numbers of cells/well depending on the doubling time of the cell line for 24 hours. Then these cells were treated by Compound 1 at 5˜8 different doses and DMSO vehicle controls. After another 48 or 72 hour incubation, the number viable cells/wells were measured by the sulforhodamine B (SRB) assay (48 h) or the Promega Celltiter Fluor Cell Viability (72 h). IC50 values were then calculated based on normalized cell counts at different Compound 1 doses. Anti-proliferative activity was determined by cell viability measurements.

For the next experiment, the system named is AML193. Kind of experiment: Cell viability, Promega Celltiter Fluor (72 h). As to conditions: Homo sapiens; AML193, Acute Myeloid Leukemia, assay duration 72 hours; read-out: LP-284 IC50. As to the method:
as §1

In another experiment the test system is MAVER1. Kind of experiment: Cell viability, Promega Celltiter Fluor (72 h). The settings on record: Homo sapiens; MAVER1, Mantle Cell Lymphoma, assay duration 72 hours; read-out: LP-284 IC50. As to the method: as §1
For a further experiment, the system named is CA46. Put plainly: Cell viability, Promega Celltiter Fluor (72 h). As to conditions: Homo sapiens; CA46, Burkitt's Lymphoma, assay duration 72 hours; read-out: LP-284 IC50. As for the experimental part:
as §1

Another experiment concerns SUPB15. Kind of experiment: Cell viability, Promega Celltiter Fluor (72 h). As to conditions: Homo sapiens, SUP-B15; SUPB15, Acute Lymphoblastic Leukemia, assay duration 72 hours; read-out: LP-284 IC50. As for the experimental part:
as §1

For a further experiment, the system named is MINO. Put plainly: Cell viability, Promega Celltiter Fluor (72 h). As to conditions: Homo sapiens, Mantle Cell Lymphoma, assay duration 72 hours, read-out: LP-284 IC50. As for the experimental part: as §1
The next experiment has as its system JEKO1. Put plainly: Cell viability, Promega Celltiter Fluor (72 h). As to conditions: Homo sapiens, JeKo-1; JEKO1, Mantle Cell Lymphoma, assay duration 72 hours; read-out: LP-284 IC50. As to the method: as §1
The next experiment deals with SUDHL6. Put plainly: Cell viability, Promega Celltiter Fluor (72 h). The settings on record: Homo sapiens, SU-DHL-6; SUDHL6, Double-Hit Lymphoma, assay duration 72 hours; read-out: LP-284 IC50. As to the method:
as §1

Another experiment deals with K562. Kind of experiment: Cell viability, Promega Celltiter Fluor (72 h). As to conditions: Homo sapiens; K562, Chronic Myeloid Leukemia, assay duration 72 hours; read-out: LP-284 IC50. As to the method:
as §1

For the next experiment, the system named is Z138. Kind of experiment: Cell viability, Promega Celltiter Fluor (72 h). The settings on record: Homo sapiens, Z-138; Z138, Mantle Cell Lymphoma, assay duration 72 hours; read-out: LP-284 IC50. As to the method: as §1
A further experiment relates to NCIH929. Kind of experiment: Cell viability, Promega Celltiter Fluor (72 h). The settings on record: Homo sapiens, NCI-H929; NCIH929, Multiple Myeloma, assay duration 72 hours; read-out: LP-284 IC50. As to the method:
as §1

Another experiment relates to REH. Kind of experiment: Cell viability, Promega Celltiter Fluor (72 h). As to conditions: Homo sapiens, Acute Lymphoblastic Leukemia, assay duration 72 hours, read-out: LP-284 IC50. As for the experimental part:
as §1

For the next experiment, the system named is K562R. Put plainly: Cell viability, Promega Celltiter Fluor (72 h). The settings on record: Homo sapiens, K-562R, Chronic Myeloid Leukemia, assay duration 72 hours, read-out: LP-284 IC50. As to the method:
as §1

For a further experiment, the system named is REC1. Kind of experiment: Cell viability, Promega Celltiter Fluor (72 h). As to conditions: Homo sapiens; REC1, Mantle Cell Lymphoma, assay duration 72 hours; read-out: LP-284 IC50. As to the method:
as §1

Another experiment relates to U937. Put plainly: Cell viability, Promega Celltiter Fluor (72 h). The settings on record: Homo sapiens, U-937; U937, Acute Myeloid Leukemia, assay duration 72 hours; read-out: LP-284 IC50. As to the method: as §1
In a further experiment the test system is THP1. Kind of experiment: Cell viability, Promega Celltiter Fluor (72 h). As to conditions: Homo sapiens, THP-1; THP1, Acute Myeloid Leukemia, assay duration 72 hours; read-out: LP-284 IC50. As for the experimental part: as §1
A further experiment deals with KU812. Kind of experiment: Cell viability, Promega Celltiter Fluor (72 h). The settings on record: Homo sapiens; KU812, Chronic Myeloid Leukemia, assay duration 72 hours; read-out: LP-284 IC50. As to the method: as §1
The test system of a further experiment is RPMI8226. Kind of experiment: Cell viability, sulforhodamine B (SRB) assay (48 h). The settings on record: Homo sapiens, RPMI-8226; RPMI8226, Multiple Myeloma, assay duration 48 hours; read-out: LP-284 IC50. As for the experimental part:
as §1

In another experiment the test system is CCRFCEM. The description is as above. The settings on record: Homo sapiens, CCRF-CEM, Acute Lymphoblastic Leukemia, assay duration 48 hours, read-out: LP-284 IC50. As for the experimental part: as §1
The test system of another experiment is SR. The description is as above. As to conditions: Homo sapiens, Anaplastic large cell lymphoma, assay duration 48 hours, read-out: LP-284 IC50. As for the experimental part:
as §1

Another experiment has as its system MOLT4. The experiment is described as above. The settings on record: Homo sapiens, MOLT-4; MOLT4, Acute Lymphoblastic Leukemia, assay duration 48 hours; read-out: LP-284 IC50. As for the experimental part: as §1
The next experiment relates to HL60TB. Described as above. The settings on record: Homo sapiens, HL-60, Acute Myeloid Leukemia, assay duration 48 hours, read-out: LP-284 IC50. As to the method: as §1

pIC50: −log10 of the molar value.

Take `CC1=C(CN(O)C(N)=O)C2=C(C)C3(CC3)[C@@](C)(O)C(=O)C2=C1` [LP-284, hydroxyureamethyl acylfulvene]: the pIC50 with JVM2 is 6.46; with AML193, 5.74; with MAVER1, 6.71; with CA46 it was 6.37; with SUPB15, 6.23; with MINO, 7.06. Besides, the pIC50 with JEKO1 was 6.58; in the experiment with SUDHL6 it was 6.35; with K562, 6.53; in the experiment on Z138 it was 6.43; in the experiment with NCIH929, 6.48; in the experiment with REH, 6.94. Besides, the pIC50 was 6.53 in the experiment with K562R; 6.10 in the experiment on REC1; 6.18 in the experiment on U937; 5.82 with THP1; 6.31 in the experiment with KU812; 6.46 in the experiment with RPMI8226. Besides, the pIC50 in the experiment on CCRFCEM is 5.65; in the experiment on SR, 6.05; in the experiment on MOLT4, 5.04; in the experiment with HL60TB, 6.02.

The record behind these values is patent US20240082181A1, “Method for Treating Blood Cancers” (Lantern Pharma Inc., priority 2021, published 2024).
